The test concerns the target T1, human CGT (Homo sapiens, UniProt Q16880).
T1 sequence (Q16880 21-541): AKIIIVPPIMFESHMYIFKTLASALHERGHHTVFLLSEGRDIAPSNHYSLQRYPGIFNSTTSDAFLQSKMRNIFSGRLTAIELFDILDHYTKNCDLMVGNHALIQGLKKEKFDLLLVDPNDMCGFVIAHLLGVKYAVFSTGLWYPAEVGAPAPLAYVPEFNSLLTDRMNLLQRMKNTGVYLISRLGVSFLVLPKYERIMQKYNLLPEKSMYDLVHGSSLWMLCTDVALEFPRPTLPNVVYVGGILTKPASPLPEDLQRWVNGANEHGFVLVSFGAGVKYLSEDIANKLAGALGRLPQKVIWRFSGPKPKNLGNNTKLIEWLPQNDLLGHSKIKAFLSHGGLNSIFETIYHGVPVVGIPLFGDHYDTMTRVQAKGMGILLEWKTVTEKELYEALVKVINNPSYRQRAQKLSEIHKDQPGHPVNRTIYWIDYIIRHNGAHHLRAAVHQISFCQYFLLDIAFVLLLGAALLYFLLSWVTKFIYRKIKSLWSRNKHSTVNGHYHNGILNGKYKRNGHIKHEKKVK
Description: Assay 1: CGT Enzymatic Assay (RapidFire/MS/MS, 0.01% Tween 80). In kind it is biochemical. Particulars: Table 1, Compounds of Formula (I) and Formula (II), CGT enzymatic assay, read-out: IC50.

Where [1] appears, read: C6-NBD-dihydro-galactosylceramide readout.

Molecules are shown by their SMILES. pIC50: −log10 of the molar value. Like-named read-outs stand apart in the source and are kept apart here.

What is called pIC50 is the negative decadic logarithm of the IC50, by convention in mol/L. Regarding `O=C1N(c2ccc(Br)cc2)CC(O)(c2ccc(Cl)cc2)N1c1ccc(Br)cc1` (stereo not shown) [Example 19, 1,3-bis(4-bromophenyl)-4-(4-chlorophenyl)-4-hydroxyimidazolidin-2-one], the negative-log IC50 (pIC50) is 4.30 to 5.00.

Take `O=C1N(c2ccc(Br)cc2)CC(O)(c2ccc(Cl)s2)N1c1ccc(Br)cc1` (stereo not shown) [Example 5, 1,3-bis(4-bromophenyl)-4-(5-chlorothiophen-2-yl)-4-hydroxyimidazolidin-2-one]: the pIC50 was 4.30 to 5.00. As to `CC[C@H]1N(c2ccc(Cl)cc2)C(=O)N(c2ccc(Cl)cc2)C1(O)c1cccc(C#N)c1` (single isomer, unassigned) [Compound 106-2], the pIC50 is more than 6.00. Still for that read-out and setting: in the case of `CCC[C@@H]1N(c2ccc(Br)cc2)C(=O)N(c2ccc(Br)cc2)C1(O)c1cccc(OC(F)(F)F)c1` (stereo partly drawn) [Compound 112-1, (5S)-1,3-bis(4-bromophenyl)-4-hydroxy-5-propyl-4-(3-(trifluoromethoxy)phenyl)imidazolidin-2-one] it was more than 6.00.

On to `CC1(C)N(c2ccc(Cl)cc2)C(=O)N(c2ccc(C#N)cc2)C1(O)c1cccc(C#N)c1` (stereo not shown) [Example 323, 3-(1-(4-chlorophenyl)-3-(4-cyanophenyl)-4-hydroxy-5,5-dimethyl-2-oxoimidazolidin-4-yl)benzonitrile], for which, under setting [1], the pIC50 is more than 6.00. Same read-out and setting: in the case of `Cc1ccc(N2C(=O)N(c3ccc(C#N)cc3)C3(COC3)C2(O)c2cccc(C#N)c2)cc1` (stereo not shown) [Compound 278, 3-(5-(4-cyanophenyl)-8-hydroxy-6-oxo-7-(p-tolyl)-2-oxa-5,7-diazaspiro[3.4]octan-8-yl)benzonitrile] it was more than 6.00. In the case of `O=C1N(c2ccc(Br)cc2)C(=O)C(O)(c2cc3ccccc3s2)N1c1ccc(Br)cc1` (stereo not shown) [Example 214, 5-(benzo[b]thiophen-2-yl)-1,3-bis(4-bromophenyl)-5-hydroxyimidazolidine-2,4-dione], the pIC50 was 4.30 to 5.00.

In the case of `COCC1(C)N(c2ccc(Cl)cc2)C(=O)N(c2ccc(Cl)cc2)C1(O)c1cccc(OC(F)(F)F)c1` (mixture of isomers) [Compound 296, 1,3-bis(4-chlorophenyl)-4-hydroxy-5-(methoxymethyl)-5-methyl-4-(3-(trifluoromethoxy)phenyl)imidazolidin-2-one], the pIC50 under setting [1] was more than 6.00. `Cc1csc(C2(O)[C@@H](C)N(c3ccc(Br)cc3)C(=O)N2c2ccc(Br)cc2)c1` (stereo partly drawn) [Compound 97-2, (5R)-1,3-bis(4-bromophenyl)-4-hydroxy-5-methyl-4-(4-methylthiophen-2-yl)imidazolidin-2-one]: the pIC50 was 5.00 to 6.00.

For `O=C1N(c2ccc(Cl)cc2)[C@]2(CCOC2)[C@](O)(c2cccc(OC(F)(F)F)c2)N1c1ccc(Cl)cc1` [Compound 234-1, (4R,5S)-1,3-bis(4-chlorophenyl)-4-hydroxy-4-(3-(trifluoromethoxy)phenyl)-7-oxa-1,3-diazaspiro[4.4]nonan-2-one], the pIC50 was more than 6.00. On the same count and under the same terms, in the case of `N#Cc1cccc(C2(O)CN(c3ccc(Cl)cc3)C(=O)N2c2ccc(Cl)cc2)c1` (stereo not shown) [Compound 63, 3-(1,3-bis(4-chlorophenyl)-4-hydroxy-2-oxoimidazolidin-4-yl)benzonitrile] it was more than 6.00. Regarding `C[C@@]1(c2ccccc2)C(O)N(c2ccc(Cl)cc2)C(=O)N1c1ccc(Cl)cc1` (single isomer, unassigned) [Example 223-2], the pIC50 is more than 6.00. Turning to `O=C1N(c2ccc(Br)cc2)CC(O)(c2cccc(Cl)c2)N1c1ccc(Br)cc1` (stereo not shown) [Example 35, 1,3-bis(4-bromophenyl)-4-(3-chlorophenyl)-4-hydroxyimidazolidin-2-one], the pIC50 was 5.00 to 6.00. As to `O=C1N(c2ccccc2)C(=O)C(O)(c2ccc(OC3CC3)cc2)N1c1ccccc1` (stereo not shown) [Compound 156, 5-(4-cyclopropoxyphenyl)-5-hydroxy-1,3-diphenylimidazolidine-2,4-dione], the pIC50 is less than 4.30. The same measure, in the same setting: in the case of `O=C1N(c2ccc(Br)cc2)C(=O)C(O)(c2ccc(OC3CCC3)cc2)N1c1ccc(Br)cc1` (stereo not shown) [Example 174, 1,3-bis(4-bromophenyl)-5-(4-cyclobutoxyphenyl)-5-hydroxyimidazolidine-2,4-dione] it was less than 4.30. Still for that read-out and setting: in the case of `CC1(C(F)(F)F)N(c2ccc(Cl)cc2)C(=O)N(c2ccc(Cl)cc2)C1(O)c1cccc(OC(F)(F)F)c1` (stereo not shown) [Example 159, 1,3-bis(4-chlorophenyl)-4-hydroxy-5-methyl-4-(3-(trifluoromethoxy)phenyl)-5-(trifluoromethyl)imidazolidin-2-one] it was more than 6.00. Same read-out and setting: in the case of `COc1cccc(C2(O)C(=O)N(c3ccc(Br)cc3)C(=O)N2c2ccc(Br)cc2)c1` (stereo not shown) [Example 179, 1,3-bis(4-bromophenyl)-5-hydroxy-5-(3-methoxyphenyl)imidazolidine-2,4-dione] it was 4.30 to 5.00. Regarding `O=C1N(c2ccc(C(F)(F)F)cc2)C2(COC2)C(O)(c2cccc(OC(F)(F)F)c2)N1c1ccc(C(F)(F)F)cc1` (stereo not shown) [Compound 302, 8-hydroxy-8-(3-(trifluoromethoxy)phenyl)-5,7-bis(4-(trifluoromethyl)phenyl)-2-oxa-5,7-diazaspiro[3.4]octan-6-one], the pIC50 under setting [1] is more than 6.00. As for `O=C1N(c2ccc(Cl)cc2)[C@H](C2CCC2)C(O)(c2cccc(OC(F)(F)F)c2)N1c1ccc(Cl)cc1` (stereo partly drawn) [Example 191-2, (5R)-1,3-bis(4-chlorophenyl)-5-cyclobutyl-4-hydroxy-4-(3-(trifluoromethoxy)phenyl)imidazolidin-2-one], the pIC50 is more than 6.00. On the same count and under the same terms, in the case of `O=C1N(c2ccc(Br)cc2)C(=O)C(O)(c2ccc(OC3CCCC3)cc2)N1c1ccc(Br)cc1` (stereo not shown) [Example 167, 1,3-bis(4-bromophenyl)-5-(4-(cyclopentyloxy)phenyl)-5-hydroxyimidazolidine-2,4-dione] it was 4.00 to 4.30. Still for that read-out and setting: in the case of `CCCC1N(c2ccc(Br)cc2)C(=O)N(c2ccc(Br)cc2)C1(O)c1cccc(CC)c1` (stereo not shown) [Compound 88, 1,3-bis(4-bromophenyl)-4-(3-ethylphenyl)-4-hydroxy-5-propylimidazolidin-2-one] it was more than 6.00; in that of `CCC1N(c2ccc(Br)cc2)C(=O)N(c2ccc(Br)cc2)C1(O)c1cccc(OC(F)(F)F)c1` (stereo in doubt) [Compound 83-2, (5R)-1,3-bis(4-bromophenyl)-5-ethyl-4-hydroxy-4-(3-(trifluoromethoxy)phenyl)imidazolidin-2-one], more than 6.00.

For `CCc1cccc(C2(O)C(C)N(c3ccc(Br)cc3)C(=O)N2c2ccc(Br)cc2)c1` (stereo not shown) [Compound 68, 1,3-bis(4-bromophenyl)-4-(3-ethylphenyl)-4-hydroxy-5-methylimidazolidin-2-one], the pIC50 is more than 6.00. For `Cc1cc(C)cc(C2(O)[C@@H](C)N(c3ccc(Br)cc3)C(=O)N2c2ccc(Br)cc2)c1` (stereo partly shown) [Example 42-2], the pIC50 is 5.00 to 6.00. On the same count and under the same terms, in the case of `O=C1N(c2ccc(C(F)(F)F)cc2)CC(O)(c2ccccc2)N1c1ccc(C(F)(F)F)cc1` (stereo not shown) [Example 15, 4-hydroxy-4-phenyl-1,3-bis(4-(trifluoromethyl)phenyl)imidazolidin-2-one] it was less than 4.30; in that of `O=C1N(c2ccc(Br)cc2)CC(O)(c2cccnc2)N1c1ccc(Br)cc1` (stereo not shown) [Compound 52, 1,3-bis(4-bromophenyl)-4-hydroxy-4-(pyridin-3-yl)imidazolidin-2-one], 4.30 to 5.00. As for `Cc1ccc(N2C(=O)N(c3ccc(C)cc3)C(O)(c3cccc(C(F)F)c3)C23COC3)cc1` (stereo not shown) [Compound 285, 8-(3-(difluoromethyl)phenyl)-8-hydroxy-5,7-di-p-tolyl-2-oxa-5,7-diazaspiro[3.4]octan-6-one], the pIC50 under setting [1] is more than 6.00. With `Cc1cccc(C2(O)[C@H](C)N(c3ccc(Br)cc3)C(=O)N2c2ccc(Br)cc2)c1` (stereo partly shown) [Example 29-1], the pIC50 was more than 6.00. `C[C@@]1(C(F)(F)F)N(c2ccc(Cl)cc2)C(=O)N(c2ccc(Cl)cc2)C1(O)c1cc(C#N)cc(C#N)c1` (stereo partly drawn) [Example 331-2, 5-((5R)-1,3-bis(4-chlorophenyl)-4-hydroxy-5-methyl-2-oxo-5-(trifluoromethyl)imidazolidin-4-yl)isophthalonitrile]: the pIC50 under setting [1] was more than 6.00. Turning to `C[C@H]1N(c2ccc(Br)cc2)C(=O)N(c2ccc(Br)cc2)C1(O)c1cccc(C(F)(F)F)c1` (stereo partly drawn) [Compound 74-2, (5R)-1,3-bis(4-bromophenyl)-4-hydroxy-5-methyl-4-(3-(trifluoromethyl)phenyl)imidazolidin-2-one], the pIC50 is more than 6.00. With `COC[C@H]1N(c2ccc(Cl)cc2)C(=O)N(c2ccc(Cl)cc2)C1(O)c1cccc(OC(F)F)c1` (stereo partly drawn) [Compound 238-2, (5R)-1,3-bis(4-chlorophenyl)-4-(3-(difluoromethoxy)phenyl)-4-hydroxy-5-(methoxymethyl)imidazolidin-2-one], the pIC50 is more than 6.00. On the same count and under the same terms, the result for `C#Cc1cc(Cl)cc(C2(O)CN(c3ccc(Cl)cc3)C(=O)N2c2ccc(Cl)cc2)c1` (stereo not shown) [Compound 108, 4-(3-chloro-5-ethynylphenyl)-1,3-bis(4-chlorophenyl)-4-hydroxyimidazolidin-2-one] reads 5.00 to 6.00; that for `N#Cc1ccc(C2(O)CN(c3ccc(Br)cc3)C(=O)N2c2ccc(Br)cc2)cc1` (stereo not shown) [Compound 61, 4-(1,3-bis(4-bromophenyl)-4-hydroxy-2-oxoimidazolidin-4-yl)benzonitrile], less than 4.30; that for `CC(O)c1cccc(C2(O)C(C)N(c3ccc(Cl)cc3)C(=O)N2c2ccc(Cl)cc2)c1` (stereo not shown) [Compound 137, 1,3-bis(4-chlorophenyl)-4-hydroxy-4-(3-(1-hydroxyethyl)phenyl)-5-methylimidazolidin-2-one], more than 6.00.

The values above are taken from patent US20190134005A1 (BioMarin Pharmaceutical Inc., priority 2016, published 2019).
